Test results from patent US8637510B2, “Morpholinothiazoles as alpha 7 positive allosteric modulators” (Janssen Pharmaceutica NV, priority 2009, dated 2014).

Assays:
human alpha 7-wt nAChR = target: T1, human alpha 7-wt nAChR (Homo sapiens, UniProt P36544); test: Ca2+ flux imaging (FDSS) (Protocol B); assay type: cell-based; settings: for Emax: efficacy of 100 μM choline defined as 100% in the absence of a PAM, read-out: a7-PAM-G_[33]_Eff_Curve_FI % Efficacy; for EC50: potentiation of 100 μM choline, compounds 0.01 μM to 30 μM, read-out: a7-PAM-G_[33]_pEC50 pEC50 (converted)
T1 construct: expressed in transfected cells
T1 sequence (P36544 23-502): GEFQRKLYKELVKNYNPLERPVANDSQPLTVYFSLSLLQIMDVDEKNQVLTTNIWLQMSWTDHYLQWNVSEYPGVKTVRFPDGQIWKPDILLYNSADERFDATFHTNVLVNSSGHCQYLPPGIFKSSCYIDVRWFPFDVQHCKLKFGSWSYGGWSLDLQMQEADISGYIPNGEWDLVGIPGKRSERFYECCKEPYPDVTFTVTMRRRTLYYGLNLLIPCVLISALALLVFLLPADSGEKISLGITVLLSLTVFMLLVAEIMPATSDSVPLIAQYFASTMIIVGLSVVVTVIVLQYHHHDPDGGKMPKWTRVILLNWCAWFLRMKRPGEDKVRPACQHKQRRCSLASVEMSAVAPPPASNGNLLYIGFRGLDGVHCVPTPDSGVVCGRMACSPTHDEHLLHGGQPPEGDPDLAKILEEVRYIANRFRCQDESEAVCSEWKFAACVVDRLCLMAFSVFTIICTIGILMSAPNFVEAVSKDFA
Method in brief: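 PAM activity was measured as FDSS calcium fluorescence in α7-wt nAChR cells loaded with 2 μM Fluo-4AM, with compounds at 0.01–30 μM added alongside or 10 min ahead of sub-maximal 100 μM choline. Peak responses were normalised to choline-only efficacy, and EC50 was taken at half-maximal effect.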

## Cc1cc(-c2sc(N3C[C@@H](C)O[C@@H](C)C3)nc2CNC(=O)CC(C)C)cc(C)n1 [Compound 42, N-[[2-[(2R,6S)-2,6-dimethyl-4-morpholinyl]-5-(2,6-dimethyl-4-pyridinyl)-4-thiazolyl]methyl]-3-methyl-butanamide]
other
  melting point: 184 °C
Human alpha 7-wt nAChR
  Emax: 827%
  EC50: 10.5 nM

## Cc1cc(-c2sc(N3C[C@@H](C)O[C@@H](C)C3)nc2CNC(=O)C2C(C)(C)C2(C)C)cc(C)n1 [Compound 43, N-[[2-[(2R,6S)-2,6-dimethyl-4-morpholinyl]-5-(2,6-dimethyl-4-pyridinyl)-4-thiazolyl]methyl]-2,2,3,3-tetramethyl-cyclopropanecarboxamide]
other
  melting point: 197 °C
Human alpha 7-wt nAChR
  Emax: 663%
  EC50: 60.3 nM

## Cc1cc(-c2sc(N3C[C@@H](C)O[C@@H](C)C3)nc2CNC(=O)c2cccc(C(F)(F)F)c2)cc(C)n1 [Compound 44, N-[[2-[(2R,6S)-2,6-dimethyl-4-morpholinyl]-5-(2,6-dimethyl-4-pyridinyl)-4-thiazolyl]methyl]-3-(trifluoromethyl)-benzamide]
other
  melting point: 180 °C
Human alpha 7-wt nAChR
  Emax: 607%
  EC50: 282 nM

## Cc1cc(-c2sc(N3C[C@@H](C)O[C@@H](C)C3)nc2CNC(=O)c2ccc3c(c2)OC(F)(F)O3)cc(C)n1 [Compound 45, N-[[2-[(2R,6S)-2,6-dimethyl-4-morpholinyl]-5-(2,6-dimethyl-4-pyridinyl)-4-thiazolyl]methyl]-2,2-difluoro-1,3-benzodioxole-5-carboxamide]
other
  melting point: 175 °C
Human alpha 7-wt nAChR
  Emax: 566%
  EC50: 355 nM

## Cc1cc(-c2sc(N3C[C@@H](C)O[C@@H](C)C3)nc2CNC(=O)c2cccc3c2OC(F)(F)O3)cc(C)n1 [Compound 46, N-[[2-[(2R,6S)-2,6-dimethyl-4-morpholinyl]-5-(2,6-dimethyl-4-pyridinyl)-4-thiazolyl]methyl]-2,2-difluoro-1,3-benzodioxole-4-carboxamide]
other
  melting point: 185 °C
Human alpha 7-wt nAChR
  Emax: 610%
  EC50: 331 nM

## Cc1cc(-c2sc(N3C[C@@H](C)O[C@@H](C)C3)nc2CNC(=O)CC2CCC2)cc(C)n1 [Compound 49, N-[[2-[(2R,6S)-2,6-dimethyl-4-morpholinyl]-5-(2,6-dimethyl-4-pyridinyl)-4-thiazolyl]methyl]-cyclobutaneacetamide]
other
  melting point: 153 °C
Human alpha 7-wt nAChR
  EC50: 26.3 nM

## Cc1cc(-c2sc(N3C[C@@H](C)O[C@@H](C)C3)nc2CNC(=O)CCC2CC2)cc(C)n1 [Compound 50, N-[[2-[(2R,6S)-2,6-dimethyl-4-morpholinyl]-5-(2,6-dimethyl-4-pyridinyl)-4-thiazolyl]methyl]-cyclopropanepropanamide]
other
  melting point: 168 °C
Human alpha 7-wt nAChR
  Emax: 953%
  EC50: 66.1 nM

## Cc1cc(-c2sc(N3CCOCC3)nc2CNC(=O)c2cc(C)on2)cc(C)n1 [Compound 63, N-[[5-(2,6-dimethyl-4-pyridinyl)-2-(4-morpholinyl)-4-thiazolyl]methyl]-5-methyl-3-isoxazolecarboxamide]
other
  melting point: 197 °C
Human alpha 7-wt nAChR
  Emax: 969%
  EC50: 1820 nM

## Cc1cc(-c2sc(N3CCOCC3)nc2CNC(=O)CC2CC2)cc(C)n1 [Compound 64, N-[[5-(2,6-dimethyl-4-pyridinyl)-2-(4-morpholinyl)-4-thiazolyl]methyl]-cyclopropaneacetamide]
other
  melting point: 188 °C
Human alpha 7-wt nAChR
  Emax: 980%

## Cc1cc(-c2sc(N3CCOCC3)nc2CNC(=O)C2CCC2)cc(C)n1 [Compound 65, N-[[5-(2,6-dimethyl-4-pyridinyl)-2-(4-morpholinyl)-4-thiazolyl]methyl]-cyclobutanecarboxamide]
other
  melting point: 188 °C
Human alpha 7-wt nAChR
  EC50: 3240 nM

## Cc1cc(-c2sc(N3CCOCC3)nc2CNC(=O)c2ccc(F)cc2)cc(C)n1 [Compound 66, N-[[5-(2,6-dimethyl-4-pyridinyl)-2-(4-morpholinyl)-4-thiazolyl]methyl]-4-fluoro-benzamide]
other
  melting point: 210 °C
Human alpha 7-wt nAChR
  EC50: 1200 nM

## CCCC(=O)NCc1nc(N2CCOCC2)sc1-c1cc(C)nc(C)c1 [Compound 67, N-[[5-(2,6-dimethyl-4-pyridinyl)-2-(4-morpholinyl)-4-thiazolyl]methyl]-butanamide]
other
  melting point: 178 °C
Human alpha 7-wt nAChR
  Emax: 959%
  EC50: 5370 nM

## Cc1cc(-c2sc(N3CCOCC3)nc2CNC(=O)c2ccc(F)cc2C)cc(C)n1 [Compound 80, N-[[5-(2,6-dimethyl-4-pyridinyl)-2-(4-morpholinyl)-4-thiazolyl]methyl]-4-fluoro-2-methyl-benzamide]
other
  melting point: 221 °C
Human alpha 7-wt nAChR
  Emax: 902%
  EC50: 661 nM

## Cc1cc(-c2sc(N3C[C@@H](C)O[C@@H](C)C3)nc2CNC(=O)c2cccc(F)c2)ccn1 [Compound 93, N-[[2-[(2R,6S)-2,6-dimethyl-4-morpholinyl]-5-(2-methyl-4-pyridinyl)-4-thiazolyl]methyl]-3-fluoro-benzamide]
other
  melting point: 153 °C
Human alpha 7-wt nAChR
  Emax: 477%
  EC50: 479 nM

## Cc1cc(-c2sc(N3C[C@@H](C)O[C@@H](C)C3)nc2CNC(=O)c2ccc(F)cc2)ccn1 [Compound 94, N-[[2-[(2R,6S)-2,6-dimethyl-4-morpholinyl]-5-(2-methyl-4-pyridinyl)-4-thiazolyl]methyl]-4-fluoro-benzamide]
other
  melting point: 225 °C
Human alpha 7-wt nAChR
  Emax: 420%
  EC50: 479 nM

## Cc1cc(-c2sc(N3C[C@@H](C)O[C@@H](C)C3)nc2CNC(=O)C2CCCC2)c(C)cn1 [Compound 96, N-[[2-[(2R,6S)-2,6-dimethyl-4-morpholinyl]-5-(2,5-dimethyl-4-pyridinyl)-4-thiazolyl]methyl]-cyclopentanecarboxamide]
other
  melting point: 173 °C
Human alpha 7-wt nAChR
  Emax: 420%
  EC50: 676 nM

## Cc1cc(-c2sc(N3C[C@@H](C)O[C@@H](C)C3)nc2CNC(=O)CC2CC2)c(C)cn1 [Compound 97, N-[[2-[(2R,6S)-2,6-dimethyl-4-morpholinyl]-5-(2,5-dimethyl-4-pyridinyl)-4-thiazolyl]methyl]-cyclopropaneacetamide]
other
  melting point: 138 °C
Human alpha 7-wt nAChR
  Emax: 424%
  EC50: 3020 nM

## Cc1cc(-c2sc(N3C[C@@H](C)O[C@@H](C)C3)nc2CNC(=O)c2cc(C)on2)c(C)cn1 [Compound 98, N-[[2-[(2R,6S)-2,6-dimethyl-4-morpholinyl]-5-(2,5-dimethyl-4-pyridinyl)-4-thiazolyl]methyl]-5-methyl-3-isoxazolecarboxamide]
other
  melting point: 155 °C
Human alpha 7-wt nAChR
  EC50: 4070 nM

## C[C@@H]1CN(c2nc(CNC(=O)CC3CC3)c(-c3ccncc3)s2)C[C@H](C)O1 [Compound 99, N-[[2-[(2R,6S)-2,6-dimethyl-4-morpholinyl]-5-(4-pyridinyl)-4-thiazolyl]methyl]-cyclopropaneacetamide]
other
  melting point: 178 °C
Human alpha 7-wt nAChR
  EC50: 7410 nM

## Cc1cc(C(=O)NCc2nc(N3C[C@@H](C)O[C@@H](C)C3)sc2-c2ccncc2)no1 [Compound 100, N-[[2-[(2R,6S)-2,6-dimethyl-4-morpholinyl]-5-(4-pyridinyl)-4-thiazolyl]methyl]-5-methyl-3-isoxazolecarboxamide]
other
  melting point: 182 °C
Human alpha 7-wt nAChR
  EC50: 1820 nM

## Cc1cc(F)ccc1C(=O)NCc1nc(N2C[C@@H](C)O[C@@H](C)C2)sc1-c1ccncc1 [Compound 102, N-[[2-[(2R,6S)-2,6-dimethyl-4-morpholinyl]-5-(4-pyridinyl)-4-thiazolyl]methyl]-4-fluoro-2-methyl-benzamide]
other
  melting point: 161 °C
Human alpha 7-wt nAChR
  Emax: 982%
  EC50: 347 nM

## CC(C)CC(=O)NCc1nc(N2C[C@@H](C)O[C@@H](C)C2)sc1-c1ccncc1 [Compound 103, N-[[2-[(2R,6S)-2,6-dimethyl-4-morpholinyl]-5-(4-pyridinyl)-4-thiazolyl]methyl]-3-methyl-butanamide]
other
  melting point: 173 °C
Human alpha 7-wt nAChR
  EC50: 1290 nM

## Cc1cc(C(=O)NCc2nc(N3CCOCC3)sc2-c2ccncc2)no1 [Compound 111, 5-methyl-N-[[2-(4-morpholinyl)-5-(4-pyridinyl)-4-thiazolyl]methyl]-3-isoxazolecarboxamide]
other
  melting point: 191 °C
Human alpha 7-wt nAChR
  Emax: 812%

## O=C(CC1CC1)NCc1nc(N2CCOCC2)sc1-c1ccncc1 [Compound 112, N-[[2-(4-morpholinyl)-5-(4-pyridinyl)-4-thiazolyl]methyl]-cyclopropaneacetamide]
other
  melting point: 135 °C
Human alpha 7-wt nAChR
  Emax: 525%

## Cc1cc(F)ccc1C(=O)NCc1nc(N2CCOCC2)sc1-c1ccncc1 [Compound 113, 4-fluoro-2-methyl-N-[[2-(4-morpholinyl)-5-(4-pyridinyl)-4-thiazolyl]methyl]-benzamide]
other
  melting point: 191 °C
Human alpha 7-wt nAChR
  Emax: 730%
  EC50: 2750 nM

## Cc1nocc1C(=O)NCc1nc(N2CCOCC2)sc1-c1ccncc1 [Compound 114, 3-methyl-N-[[2-(4-morpholinyl)-5-(4-pyridinyl)-4-thiazolyl]methyl]-4-isoxazolecarboxamide]
other
  melting point: 234 °C
Human alpha 7-wt nAChR
  Emax: 313%

## O=C(NCc1nc(N2CCOCC2)sc1-c1ccncc1)C1CC1 [Compound 116, N-[[2-(4-morpholinyl)-5-(4-pyridinyl)-4-thiazolyl]methyl]-cyclopropanecarboxamide]
other
  melting point: 189 °C
Human alpha 7-wt nAChR
  Emax: 259%

## Cc1ccc(-c2sc(N3C[C@@H](C)O[C@@H](C)C3)nc2CNC(=O)c2conc2C)cn1 [Compound 117, N-[[2-[(2R,6S)-2,6-dimethyl-4-morpholinyl]-5-(6-methyl-3-pyridinyl)-4-thiazolyl]methyl]-3-methyl-4-isoxazolecarboxamide]
other
  melting point: 129 °C
Human alpha 7-wt nAChR
  Emax: 665%
